Measurements published in patent US12540143B2, “Methods and compositions for targeted protein degradation” (Ranok Therapeutics (Hangzhou) Co. Ltd., priority 2019, dated 2026).

Experiments:
PBRM1 BD5 = PBRM1 BD5 (Homo sapiens, UniProt Q86U86); assay: Bromodomain Binding Assay; conditions: 10 μM Compound 074, read-out: Bromodomain Binding % of Control
PBRM1 BD2 = PBRM1 BD2 (Homo sapiens, UniProt Q86U86); assay: Bromodomain Binding Assay; conditions: 10 μM Compound 074, read-out: Bromodomain Binding % of Control
SMARCA4 = target: T1, SMARCA4 (Homo sapiens, UniProt P51532); assay: Bromodomain Binding Assay; conditions: 10 μM Compound 074, read-out: Bromodomain Binding % of Control
T1 construct: made in house; host or cells: T7 phage grown in E. coli host derived from BL21

TRIM24 = target: T2, TRIM24 (Homo sapiens, UniProt O15164); assay: Bromodomain Binding Assay; conditions: 10 μM Compound 074, read-out: Bromodomain Binding % of Control
T2 construct: made in house; host or cells: T7 phage grown in E. coli host derived from BL21

[1] = tested on: MV4-11 acute myeloid leukemia xenograft; assay: MV4-11 AML xenograft model in mice; conditions: for tumor growth inhibition (FIG. 3a): after 3 weeks of dosing
Experimental: MV4-11 cells were plated in a 96-well tissue culture plate at a density of 4,500 cells/90 μL/well and incubated at 37° C./5% CO2 for 24 hr. Cells were then treated with compounds at various concentrations (a 10-point, 3-fold serial dilution series starting at 20 μM) with a final concentration of 0.5% DMSO/well and then incubated in 37° C./5% CO2 for 72 hr. 10 μL the cell proliferation reagent CCK-8 (WST-8) was added into each well and incubated at 37° C./5% CO2 for 3-4 hr and the absorbance at 450 nm measured with an En Vision Plate Reader.
MV4-11 acute myeloid leukemia and SU-DHL-4 diffuse large B-cell lymphoma (ATCC, #CRL-2957) cells were cultured in medium supplemented with 10% fetal bovine serum at 37° C./5% CO2. 5×10^6 MV-4-11 or 1×10^7 SU-DHL-4 cells were collected and re-suspended in 0.1 mL of serum-free media with Matrigel (1:1 v/v) per mouse for subcutaneous inoculation in isoflurane anesthetized male BALB/c nude or C.B-17 scid mice, respectively (treated in accordance with AAALAC animal welfare guidelines). When the average tumor volumes reached 100-200 mm^3, tumor volume outliers were removed and the remaining animals randomly divided into groups of 6-8 with similar average tumor volumes in each group. […] The appearance and behavior of each mouse was observed and recorded daily. Body weights and tumor volumes were measured and recorded every 2-4 days and the results were expressed as group means±SEM. Pairwise statistical comparisons between groups were performed by one-way ANOVA, and p<0.05 was considered statistically significant.

BAZ2B = BAZ2B (Homo sapiens, UniProt Q9UIF8); assay: Bromodomain Binding Assay; conditions: 10 μM Compound 074, read-out: Bromodomain Binding % of Control
BRPF1 = BRPF1 (Homo sapiens, UniProt P55201); assay: Bromodomain Binding Assay; conditions: 10 μM Compound 074, read-out: Bromodomain Binding % of Control
[2] = Pharmacokinetics and tissue distribution in the MV4-11 xenograft model in mice; assay type: in vivo; conditions: for AUC(0-∞): 5 mg/kg single intravenous dose
Experimental: Pharmacokinetics and Tissue Distribution
15 female CB-17 SCID mice (treated in accordance with AAALAC animal welfare guidelines) were weighed and administered 5 mg/kg of compound 074 by a single intravenous injection. 0.10 mL of blood was collected from each mouse by submandibular vein and sodium heparin was added as an anticoagulant. Samples were collected before compound administration, and at 1 hr, 6 hr 24 hr and 48 hr time points after administration, with 3 mice sampled per time point. After collection, samples were placed on ice and the animals sacrificed to collect tumor and normal tissues. The method development and analysis of all samples were performed by the analytical laboratory at Shanghai Medicilon Inc. Intra-day accuracy evaluation of samples for quality control was carried out during sample analysis and a quality control accuracy of more than 66.7% of samples was required between to be 80-120%. Pharmacokinetic parameters were calculated using Phoenix WinNonlin7.0 software.

BRD9 = BRD9 (Homo sapiens, UniProt Q9H8M2); assay: Bromodomain Binding Assay; conditions: 10 μM Compound 074, read-out: Bromodomain Binding % of Control
BRD4 = target: T3, BRD4 (Homo sapiens, UniProt O60885); assay: BRD4 western blotting in MV4-11 cells; assay type: cell-based
T3 construct: endogenous in cells; host or cells: MV4-11
Experimental: Cells were then collected by centrifugation, washed one time with cold PBS, supernatants aspirated and cell pellets lysed with 4° C. RIPA lysis buffer containing a protease/phosphatase inhibitor cocktail. The total protein concentrations of cell lysates were determined by BCA Protein Assay kit. Samples were normalized for equivalent protein concentrations, 5× loading buffer added and heated to 100° C. for 10 min and cooled to room temperature. 20 μl of each sample/well was loaded on a SDS-PAGE gel and electrophoresed for 20 min at 80 V, then 120 V for 1.5 hr. Gels were then electroblotted to nitrocellulose membranes using a wet-transfer method at 250 mA for 2.5 hr. Membranes were incubated with blocking buffer for 1 hr and washed 3 times with TBST for 5 min. Then membranes were incubated with anti-BRD4 (Cell Signaling Technology, #13440) and anti-beta-Actin (Cell Signaling Technology, #3700) antibodies diluted in blocking buffer per the manufacturer's recommendation at 4° C. overnight. After washing 3 times, blots were incubated with the appropriate labeled secondary antibody for 1 hr at room temperature and washed again. Images were read on a LI-COR and the optical density values of bands determined by ImageJ software. Data was analyzed using GraphPad Prism 7.0.

BRD1 = BRD1 (Homo sapiens, UniProt O95696); assay: Bromodomain Binding Assay; conditions: 10 μM Compound 074, read-out: Bromodomain Binding % of Control
ATAD2 = ATAD2 (Homo sapiens, UniProt Q6PL18); assay: Bromodomain Binding Assay; conditions: 10 μM Compound 074, read-out: Bromodomain Binding % of Control
ATAD2B = ATAD2B (Homo sapiens, UniProt Q9ULI0); assay: Bromodomain Binding Assay; conditions: 10 μM Compound 074, read-out: Bromodomain Binding % of Control
BRDT BD1 = BRDT BD1 (Homo sapiens, UniProt Q58F21); assay: Bromodomain Binding Assay; conditions: 10 μM Compound 074, read-out: Bromodomain Binding % of Control
KAT2B = target: T4, KAT2B (Homo sapiens, UniProt Q92831); assay: Bromodomain Binding Assay; conditions: 10 μM Compound 074, read-out: Bromodomain Binding % of Control
T4 construct: made in house; host or cells: T7 phage grown in E. coli host derived from BL21

BRWD1 BD2 = target: T5, BRWD1 BD2 (Homo sapiens, UniProt Q9NSI6); assay: Bromodomain Binding Assay; conditions: 10 μM Compound 074, read-out: Bromodomain Binding % of Control
T5 construct: made in house; host or cells: T7 phage grown in E. coli host derived from BL21
T5 sequence (Q9NSI6 1313-1418 limits assumed): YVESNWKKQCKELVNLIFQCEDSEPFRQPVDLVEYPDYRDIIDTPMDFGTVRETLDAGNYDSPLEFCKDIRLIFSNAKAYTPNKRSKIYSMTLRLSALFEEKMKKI

T4 sequence (Q92831 723-827 limits assumed): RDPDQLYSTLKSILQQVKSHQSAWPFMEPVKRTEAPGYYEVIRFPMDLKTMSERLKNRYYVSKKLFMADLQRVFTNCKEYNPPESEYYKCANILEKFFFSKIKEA
T2 sequence (O15164 899-1004 limits assumed): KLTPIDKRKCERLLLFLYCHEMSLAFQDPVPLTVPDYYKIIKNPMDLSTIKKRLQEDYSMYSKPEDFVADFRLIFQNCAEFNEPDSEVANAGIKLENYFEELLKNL
BAZ2B, sequence (Q9UIF8 2060-2164 limits assumed): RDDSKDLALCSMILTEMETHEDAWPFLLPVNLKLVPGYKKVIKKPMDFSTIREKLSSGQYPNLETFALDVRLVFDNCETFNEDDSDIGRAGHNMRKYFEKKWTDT
T1 sequence (P51532 1453-1564 limits assumed): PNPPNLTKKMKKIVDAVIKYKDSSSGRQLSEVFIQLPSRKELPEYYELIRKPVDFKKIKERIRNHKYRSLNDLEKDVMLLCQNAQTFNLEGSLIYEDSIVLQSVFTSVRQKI
BRD1, sequence (O95696 562-666 limits assumed): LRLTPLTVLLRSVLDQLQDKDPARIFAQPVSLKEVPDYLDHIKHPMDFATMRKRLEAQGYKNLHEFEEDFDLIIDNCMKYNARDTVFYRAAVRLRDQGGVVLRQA
BRPF1, sequence (P55201 628-732 limits assumed): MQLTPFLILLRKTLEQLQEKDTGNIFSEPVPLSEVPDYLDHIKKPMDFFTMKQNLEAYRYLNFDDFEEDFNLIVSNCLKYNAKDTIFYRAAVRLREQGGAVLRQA
PBRM1 BD5, sequence (Q86U86 653-763 limits assumed): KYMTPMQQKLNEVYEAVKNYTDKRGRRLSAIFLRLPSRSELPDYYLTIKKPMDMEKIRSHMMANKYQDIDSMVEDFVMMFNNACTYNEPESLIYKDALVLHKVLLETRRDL
ATAD2, sequence (Q6PL18 980-1092 limits assumed): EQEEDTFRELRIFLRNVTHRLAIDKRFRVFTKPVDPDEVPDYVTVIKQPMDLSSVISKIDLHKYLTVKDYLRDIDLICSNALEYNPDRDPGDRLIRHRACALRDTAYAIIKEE
ATAD2B, sequence (Q9ULI0 951-1066 limits assumed): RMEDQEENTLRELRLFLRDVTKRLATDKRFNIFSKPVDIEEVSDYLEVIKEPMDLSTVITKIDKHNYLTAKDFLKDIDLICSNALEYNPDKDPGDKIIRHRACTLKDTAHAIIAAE
PBRM1 BD2, sequence (Q86U86 177-287 limits assumed): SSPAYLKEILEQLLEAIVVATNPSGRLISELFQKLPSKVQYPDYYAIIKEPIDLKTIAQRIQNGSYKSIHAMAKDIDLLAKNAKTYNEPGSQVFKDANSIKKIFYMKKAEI
BRD9, sequence (Q9H8M2 136-240 limits assumed): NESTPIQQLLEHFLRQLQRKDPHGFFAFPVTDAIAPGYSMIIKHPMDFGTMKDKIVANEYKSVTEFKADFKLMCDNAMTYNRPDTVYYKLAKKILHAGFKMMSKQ

For Cc1sc2c(c1C)C(c1ccc(Cl)cc1)=N[C@@H](CC(=O)N1CCC(CN3CCN(Cc4ccc(-n5c(O)nnc5-c5cc(C(C)C)c(O)cc5O)cc4)CC3)CC1)c1nnc(C)n1-2.Cl [Compound 74, (S)-2-(4-(4-chlorophenyl)-2,3,9-trimethyl-6H-thieno[3,2-f][1,2,4]triazolo[4,3-a][1,4]diazepin-6-yl)-1-(4-((4-(4-(3-(2,4-dihydroxy-5-isopropylphenyl)-5-hydroxy-4H-1,2,4-triazol-4-yl)benzyl)piperazin-1-yl)methyl)piperidin-1-yl)ethan-1-one hydrochloride], the remaining activity at 10 µM (PBRM1 BD5) was > 75%, the remaining activity at 10 µM (PBRM1 BD2) was > 75% and the remaining activity at 10 µM (SMARCA4) was > 75%. For the same compound, the remaining activity at 10 µM (TRIM24) was > 75%, the “animals tumor free at the end of the study” value ([1]; 50 mg/kg intravenous 1×/week) was 1 out of 6 and the “tumor growth inhibition (FIG. 3a)” value ([1]; 50 mg/kg intravenous 1×/week) was “significant tumor growth inhibition”. For the same compound, the “animals tumor free at the end of the study” value ([1]; 100 mg/kg intravenous 1×/week) was 4 out of 6, the “tumor growth inhibition (FIG. 3a)” value ([1]; 100 mg/kg intravenous 1×/week) was “significant tumor growth inhibition” and the “animal deaths and body weights (FIG. 3b)” value ([1]; any group, MV4-11 xenograft) was “No animal deaths or significant effects on body weights were observed”. For the same compound, the remaining activity at 10 µM (BAZ2B) was > 75%, the remaining activity at 10 µM (BRPF1) was > 75% and the “AUC(0-∞)” value ([2]; Heart) was 8828.71 ng·h/g. For the same compound, the “AUC(0-∞)” value ([2]; Liver) was 24415.49 ng·h/g, the “AUC(0-∞)” value ([2]; Lung) was 14199.86 ng·h/g and the “AUC(0-∞)” value ([2]; Tumor) was 23857.20 ng·h/g. For the same compound, the “half-life in tumors relative to plasma and other organs” value ([2]; times as long as in plasma and other organs) was 4.6-9.5 times, the remaining activity at 10 µM (BRD9) was > 75% and the “BRD4 degradation by western blotting with proteasome inhibitor bortezomib (FIG. 2)” value (BRD4; MV4-11 cells treated with both compound 074 and bortezomib) was “BRD4 degradation was blocked”. The “BRD4 degradation by western blotting (FIG. 1)” value (BRD4; MV4-11 cells, 24 hr, 100 and 300 nM) was “BRD4 degradation was observed”, the remaining activity at 10 µM (BRD1) was > 75% and the remaining activity at 10 µM (ATAD2) was > 75%. The remaining activity at 10 µM (ATAD2B) was > 75%, the remaining activity at 10 µM (BRDT BD1) was < 10% and the remaining activity at 10 µM (KAT2B) was > 75%. The remaining activity at 10 µM (BRWD1 BD2) was > 75%.
